Laboratory results taken from paper PMC5908160, “Inhibition of sperm motility in male macaques with EP055, a potential non-hormonal male contraceptive” (PLoS ONE, 2018).
Like-named read-outs stand apart in the source and are kept apart here.

Legend:
[1] = EP054/EP055 plasma half-life in cynomolgus male macaques; design: species or system Macaca fascicularis; settings: cynomolgus monkey, in vivo, iv, 1 mg/kg, summary of both studies
Description: Half-life measurements for EP054/EP055 were done by Sinclair Research Center, LLC (SRC) (Study No. S14109, Auxvasse, MO). This study was reviewed and approved by the Sinclair IUCAC committee and complied with all applicable sections of USDA Policy 12 and the Final Rules of the Animal Welfare Act regulation (9 CFR). This study used 3 naïve cynomolgus (Macaca fascicularis) males (3-4 yrs old, 4 kg or less). Doses of EP054 in 3% DMSO-PBS, pH 7.6 were infused by i.v. at 1.0 mg/kg. The infusion rate was 4 ml/min. Plasma samples were collected at 0, 5, 15, 30 min and 1, 4, 8 and 24 hours, and immediately frozen on dry ice. Samples were stored at -80 °C until processing.
(§1) Sample preparation and LC-MS/MS analysis were done by OpAns LLC (Durham, NC). Plasma samples (both rat and macaque) were thawed at room temperature and processed by adding 160 µL of methanol (including 10 µL internal standard) to 25 µL of the sample. Samples were vortexed for 5 minutes, centrifuged at 2684 x g for 5 minutes. 50 µL of supernatant was removed for analysis by HPLC-MS/MS.
Therefore, samples were analyzed for the presence of EP055.

[2] = EP055 plasma and semen levels in rhesus males after i.v. infusion; assay type: in vivo, Macaca mulatta
Excerpt: Semen was collected by direct penile stimulation with a P-T Electronics Model 303 PTE 110 Volt AC stimulator equipped with electrocardiogram pad electrodes (10–35 V, 20 ms duration, 18 pulses/sec) as previously described. Semen was collected weekly for 3 weeks to establish baseline parameters for each male. Samples were inspected visually to determine sperm motility and suitability for the study. Sperm motility data from male 28106 presented in S1 Table is representative of pre-treatment samples. Immediately after collection, the seminal plug was separated from the liquefied fraction, placed into a cryovial, flash frozen in liquid nitrogen, and stored at -80C until evaluation for drug levels. Spermatozoa were prepared by centrifugation (7 min, 200 g) of the liquid portion of the ejaculate and resuspending the sperm pellet in TALP-HEPES medium containing 0.3% bovine serum albumin at 37°C. An aliquot was taken to determine concentration using a hemocytometer, percent motility and forward progression as previously described. Baseline semen samples were collected from each male twice during the week prior to treatment. Semen was collected from each male 6–8 hr, 28–30 hr, and 78 hr post-infusion of low dose EP055 (75–80 mg/kg body weight) intravenously. After a one-week recovery period, a baseline semen sample was obtained, and the following week semen samples were collected as described above after an intravenous infusion of high dose EP055 (125–130 mg/kg).
as §1
Semen or tissue samples were thawed at room temperature. PBS at pH 7.6 was added to each sample at a ratio of 2:1 and sonicated in an ice chilled bath for 5 minutes before homogenization using a Polytron unit (Kinematica AG, Lucerne, Switzerland). An aliquot (25 uL) of each sample homogenate was processed as described for plasma samples.
Prior to infusion of EP055, each male was sedated with ketamine by the surgical staff at ONPRC and transported to the operating room. After positioning in dorsal recumbency, the male was intubated and placed under inhalant (isoflurane) anesthesia. Bilateral intravenous catheters were placed in cephalic veins, one for infusion and one for back-up. A percutaneous arterial line was placed in the right femoral artery for direct blood pressure measurement. Invasive blood pressure, heart rate, SpO2, and respirations were monitored by the surgical staff throughout the procedure. Initially, the low doses of EP055 in 5% DMSO-PBS 7.6 was infused by i.v. at 75-80 mg/kg, using a Medfusion 3500 pump (Smiths Medical, St. Paul, MN), and was started at a low flow rate ([…]). In 3 of 4 males, a 5-10% increase in blood pressure and heart rate were noted within the first 2-3 minutes of infusion of EP055. In these cases, the infusion was temporarily suspended until these parameters subsequently declined to normal. The infusion rate was then doubled to 1.2 ml/kg/min after 5-10 minutes and the final volume of EP055 infusate was administered. Blood pressure and heart rate remained normal throughout the rest of the infusion interval. The total volume of EP055 infusate ranged from 72 ml – 136 ml, depending upon the weight of the animal, and the duration of infusion was 10-13 minutes. Following completion of the infusion, all animals recovered normally. Animals were monitored by clinical veterinary staff immediately, at 1 hr, 2 hr and 6-8 hr post-infusion, and daily for up to 30 days after the final infusion of EP055. […]

EPPIN = EPPIN (Homo sapiens, UniProt O95925); assay: AlphaScreen assay of a-EAb binding to EPPIN; settings: n = 4, read-out: IC50, inhibition of a-EAb binding to EPPIN
Sequence of EPPIN (O95925 22-133): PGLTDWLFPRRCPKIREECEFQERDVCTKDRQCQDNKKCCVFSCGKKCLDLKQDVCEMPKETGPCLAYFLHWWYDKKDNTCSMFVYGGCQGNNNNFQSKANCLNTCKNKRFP
Description: The AlphaScreen® assay was carried as previously described. Briefly, recombinant histidine-tagged recombinant EPPIN was pre-incubated with Ni-NTA chelate donor beads (catalog number AS101, Perkin Elmer, Waltham MA) and anti-Eppin 007 antibody was pre-incubated with Protein A acceptor beads (catalog number 6760136, Perkin Elmer, Waltham MA) for 30 minutes. Equal volumes of donor and acceptor bead mixtures were pipetted into white opaque 384-well microplates (OptiPlate-384; PerkinElmer, Waltham, MA) in a final volume of 30 μL. Plates were covered with top seal and transferred to a Synergy 2 Multiplatform automated plate reader (Biotek, Winooski, VT). After shaking for 2 min, plates were read with an excitation 680/30 filter, an emission 570/100 filter and data acquired using Gen5 software (Biotek). Each set of samples was pipetted in 4 replicates. […] A specific signal for each time point was calculated by subtracting the background signal (obtained in the absence of EPPIN) from its respective total signal. […] Non-specific interactions of compound with assay components were measured at the same time with the IgG detection kit ([…] biotinylated rabbit IgG) to generate the bead interaction: 10 μg/ml donor and acceptor beads. […]

With `COC(=O)NNc1nc(Nc2ccc(NC(C)=O)c(O)c2)nc(SCC(=O)O)n1` [EP055] the half-life [1] was 10 to 12 min, the concentration ([2]; high dose 125–130 mg/kg, 6–8 hr, read-out: Plasma levels) was 0.97 ± 0.66 µM and the concentration ([2]; high dose 125–130 mg/kg, 6–8 hr, read-out: Semen Levels) was 539 µM. It also gave a concentration ([2]; high dose 125–130 mg/kg, 13–17 days, read-out: Semen Levels) of 0.9 ± 0.9 µM, a concentration ([2]; low dose 75–80 mg/kg, 14–18 days, read-out: Semen Levels) of 0.4 ± 0.3 µM and a concentration at 30 h ([2]; rhesus monkey, plasma, iv, high dose 125–130 mg/kg, read-out: Plasma levels) of 0.02 ± 0.01 µM. The concentration at 6 h ([2]; rhesus monkey, plasma, iv, low dose 75–80 mg/kg, 6 hr after infusion, mean ± SEM 4 animals, read-out: Plasma levels) was 0.62 ± 0.3 µM, the concentration at 30 h ([2]; rhesus monkey, plasma, iv, low dose 75–80 mg/kg, read-out: Plasma levels) was 0.01 µM and the concentration at 30 h ([2]; rhesus monkey, semen, iv, high dose 125–130 mg/kg, read-out: Semen Levels) was 376 µM. It also gave a concentration at 78 h ([2]; rhesus monkey, semen, iv, high dose 125–130 mg/kg) of 101 ± 30 µM, a concentration at 6 h ([2]; rhesus monkey, semen, iv, low dose 75–80 mg/kg, 6 hr, read-out: Semen Levels) of 293 µM and a concentration at 30 h ([2]; rhesus monkey, semen, iv, low dose 75–80 mg/kg, read-out: Semen Levels) of 128 ± 46 µM. It also gave a concentration at 78 h ([2]; rhesus monkey, semen, iv, low dose 75–80 mg/kg) of 61 ± 22 µM, a Kp ([2]; rhesus monkey, semen/plasma, iv, high dose 125–130 mg/kg, 6–8 hr, read-out: Ratio of S/P) of 556 and a Kp at 6 h ([2]; rhesus monkey, semen/plasma, iv, low dose 75–80 mg/kg, 6 hr, read-out: Ratio of S/P) of 473. The concentration ([2]; rhesus, 6 and 30 hours after high-dose infusion, read-out: semen levels) was over 300 µM, the detection in plasma ([2]; rhesus, 6–8 hours post-infusion) was “detected” and the detection in plasma ([2]; rhesus, 28–30 hours post-infusion) was “barely detectable”. For the same compound, the “time semen levels detectable post-infusion” value ([2]; rhesus, low and high dose) was “up to 78 hours” and the IC50 (EPPIN) was 1120 µM.
